Measurements reported in patent US5541229A, “Benzimidazoles and medicaments containing these compounds” (Dr. Karl Thomae GmbH, priority 1989, dated 1996).
Like-named read-outs stand apart in the source and are kept apart here.

Tests used:
[1] = biological target: T1, bovine adrenal gland receptor preparations (Bos taurus, UniProt P25104); test: inhibition of angiotensin II bonding to bovine adrenal gland receptor preparations; type: binding
T1 construct: aliquots of a membrane preparation of bovine adrenal cortex in tris buffer; from tissue; host or cells: bovine adrenal cortex membranes
T1 sequence (P25104 1-359): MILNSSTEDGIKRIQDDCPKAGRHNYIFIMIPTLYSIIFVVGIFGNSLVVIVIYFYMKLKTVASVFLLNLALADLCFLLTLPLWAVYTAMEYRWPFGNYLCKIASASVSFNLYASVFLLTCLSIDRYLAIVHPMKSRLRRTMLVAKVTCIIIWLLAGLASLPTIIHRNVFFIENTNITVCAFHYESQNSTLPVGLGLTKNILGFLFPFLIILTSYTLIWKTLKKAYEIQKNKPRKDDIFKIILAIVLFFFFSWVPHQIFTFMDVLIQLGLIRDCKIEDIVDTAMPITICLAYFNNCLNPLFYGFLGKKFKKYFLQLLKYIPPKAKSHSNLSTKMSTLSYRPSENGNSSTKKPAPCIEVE
Protocol: After 45 minutes the incubation was stopped by rapid filtration through glass fibre filters. The radioactivity associated with the filter was determined in a […] at a counting efficiency of 80%.

angiotensin II = biological target: T2, angiotensin II (Rattus norvegicus, UniProt P25095); test: displacement of angiotensin II dose-effect curves (increase in arterial blood pressure) in rats, pA2; type: in vivo; details: average, angiotensin II antagonism in rats, 10, 20 and 30 mg/kg i.v.
T2 construct: The measured parameter is the increase in the arterial blood pressure; from tissue; host or cells: whole anaesthetised rat with destroyed spine, in vivo (vascular receptors)
T2 sequence (P25095 1-359): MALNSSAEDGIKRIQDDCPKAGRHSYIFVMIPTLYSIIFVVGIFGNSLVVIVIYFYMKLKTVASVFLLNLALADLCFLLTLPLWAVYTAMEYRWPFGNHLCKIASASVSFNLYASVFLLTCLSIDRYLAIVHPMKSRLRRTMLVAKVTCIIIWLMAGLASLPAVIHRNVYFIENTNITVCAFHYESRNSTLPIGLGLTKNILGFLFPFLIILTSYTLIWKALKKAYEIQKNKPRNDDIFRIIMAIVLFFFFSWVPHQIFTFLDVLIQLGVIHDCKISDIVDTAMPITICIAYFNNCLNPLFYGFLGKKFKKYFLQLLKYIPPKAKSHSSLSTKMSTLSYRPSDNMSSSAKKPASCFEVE
Protocol: a) rats (male, 180-220 g) are anaesthetised using sodium hexobarbital (150 mg/kg i.p.). After the anaesthetic has taken effect, a tracheal cannula is inserted, the spine is destroyed in the animals and then they are immediately respirated artifically using a respiratory pump. The arterial blood pressure is recorded via a cannula in the carotid artery by means of a Bell & Howell pressure sensor. Substances are administered via a cannula in the jugular vein. Test substances are administered in three doses (10, 20 and 30 mg/kg i.v.), wherein one dose of substance is tested per animal. […] The measured parameter is the increase in the arterial blood pressure. These dose-effect graphs are compared with standard graphs for angiotensin II without test substances. A computer program determines the displacements to the right of the dose-effect graphs for angiotensin II as a result of test substances, and calculates corresponding pA2 values for the test substances.

Row | SMILES | IC50 [1] | IC50 ([1]; 50% inhibition of the specific 125I-angiotensin II (50 pM) bonding, bovine adrenal cortex membranes, 45 minutes) | pA2 values (angiotensin II)
1 | CCCCc1nc2ccc(NC(=O)C3CCCC3)cc2n1Cc1ccc(-c2ccccc2C(=O)O)cc1 [BB] | 46 nM |  | 
2 | CCCCc1nc2ccc(N(CCCC)C(=O)NC3CCCCC3)cc2n1Cc1ccc(-c2ccccc2C(=O)O)cc1 [B] | 29 nM |  | 6,63
3 | CCCCc1nc2ccc(N3C(=O)[C@H]4CCCC[C@H]4C3=O)cc2n1Cc1ccc(-c2ccccc2-c2nn[nH]n2)cc1 [CC] | 1000 nM |  | 8,54
4 | CCCCc1nc2ccc(N(CC)C(=O)NC3CCCCC3)cc2n1Cc1ccc(-c2ccccc2C(=O)O)cc1 [C] | 31 nM |  | 6,36
5 | CCCCc1nc2ccc(N(CCC)C(=O)NC3CCCCC3)cc2n1Cc1ccc(-c2ccccc2C(=O)O)cc1 [D] | 44 nM |  | 6,59
6 | CCCCc1nc2ccc(N(C)C(=O)NC3CCCCC3)cc2n1Cc1ccc(-c2ccccc2C(=O)O)cc1 [E] | 46 nM |  | 7,34
7 | CCCCc1nc2ccc(N3Cc4ccccc4C3=O)cc2n1Cc1ccc(-c2ccccc2C(=O)O)cc1 [I] | 51 nM |  | 6,12
8 | CCCCC(=O)Nc1ccc2nc(CCCC)n(Cc3ccc(-c4ccccc4C(=O)O)cc3)c2c1 [K] | 57 nM |  | 6,38
9 | CCCCc1nc2ccc(NC(=O)CC)cc2n1Cc1ccc(-c2ccccc2C(=O)O)cc1 [L] | 58 nM |  | 6,04
10 | CCCCc1nc2ccc(NC(=O)C(C)C)cc2n1Cc1ccc(-c2ccccc2C(=O)O)cc1 [M] | 61 nM |  | 6,87
11 | CCCCc1nc2ccc(NC(=O)NC3CCCCO3)cc2n1Cc1ccc(-c2ccccc2C(=O)O)cc1 (stereo not drawn) [N] | 65 nM |  | 7,02
12 | CCCCc1nc2ccc(NC(=O)CCC)cc2n1Cc1ccc(-c2ccccc2C(=O)O)cc1 [P] | 67 nM |  | 6,46
13 | CCCCc1nc2ccc(NC(=O)N(C)C)cc2n1Cc1ccc(-c2ccccc2C(=O)O)cc1 [R] | 72 nM |  | 7,16
14 | CCCCc1nc2ccc(NC(=O)NCCCCCO)cc2n1Cc1ccc(-c2ccccc2C(=O)O)cc1 [T] | 76 nM |  | 7,20
15 | CCCCc1nc2ccc(NC(=O)C3CCCCC3)cc2n1Cc1ccc(-c2ccccc2C(=O)O)cc1 [V] |  | 84 nM | 7,26
16 | CCCCc1nc2c(C)ccc(O)c2n1Cc1ccc(-c2ccccc2-c2nn[nH]n2)cc1 [X] | 99 nM |  | 6,57
17 | CCCCc1nc2ccc(N3C(=O)[C@H]4CCCC[C@H]4C3=O)cc2n1Cc1ccc(-c2ccccc2C(=O)O)cc1 [Y] | 150 nM |  | 6,97

Now from value to molecule, other results behind:

Row | IC50 [1] | IC50 ([1]; 50% inhibition of the specific 125I-angiotensin II (50 pM) bonding, bovine adrenal cortex membranes, 45 minutes) | SMILES | pA2 values (angiotensin II)
18 | 100 nM |  | CCCCCCNC(=O)N(CCc1ccccc1)c1ccc2nc(CCCC)n(Cc3ccc(-c4ccccc4C(=O)O)cc3)c2c1 [AA] | 
19 | 29 nM |  | CCCCCCNC(=O)N(Cc1ccccc1)c1ccc2nc(CCCC)n(Cc3ccc(-c4ccccc4C(=O)O)cc3)c2c1 [A] | 7,23
20 | 46 nM |  | CCCCCN(C(=O)NC1CCCCC1)c1ccc2nc(CCCC)n(Cc3ccc(-c4ccccc4C(=O)O)cc3)c2c1 [G] | 6,89
21 | 51 nM |  | CCCCc1nc2ccc(N(Cc3ccccc3)C(=O)NC)cc2n1Cc1ccc(-c2ccccc2C(=O)O)cc1 [H] | 6,48
22 | 54 nM |  | CCCCc1nc2ccc(N(Cc3ccccc3)C(=O)NC3CCCCC3)cc2n1Cc1ccc(-c2ccccc2C(=O)O)cc1 [J] | 7,38
23 | 65 nM |  | CCCCNC(=O)Nc1ccc2nc(CCCC)n(Cc3ccc(-c4ccccc4C(=O)O)cc3)c2c1 [O] | 6,46
24 | 68 nM |  | CCCCc1nc2ccc(N(Cc3ccccc3)C(=O)OCC)cc2n1Cc1ccc(-c2ccccc2C(=O)O)cc1 [Q] | 6,83
25 | 72 nM |  | CCCCCCN(C(=O)NC1CCCCC1)c1ccc2nc(CCCC)n(Cc3ccc(-c4ccccc4C(=O)O)cc3)c2c1 [S] | 6,69
26 | 79 nM |  | CCCCCN(C(=O)NC)c1ccc2nc(CCCC)n(Cc3ccc(-c4ccccc4C(=O)O)cc3)c2c1 [U] | 7,20
27 | 86 nM |  | CCCCNC(=O)N(C)c1ccc2nc(CCCC)n(Cc3ccc(-c4ccccc4C(=O)O)cc3)c2c1 [W] | 6,28
28 | 133 nM |  | CCCCc1nc2ccc(N(Cc3ccccc3)C(=O)N(C)C)cc2n1Cc1ccc(-c2ccccc2C(=O)O)cc1 [Z] | 7,15
